Test results: publication PMC6278658, “Two New Altenusin/Thiazole Hybrids and a New Benzothiazole Derivative from the Marine Sponge-Derived Fungus Alternaria sp. SCSIOS02F49” (Molecules, 2018)

What was measured:
[1] = DPPH radical scavenging activity; conditions: for IC50: DPPH 0.1 mM in ethanol, 30 min at room temperature in the dark, absorbance at 517 nm, triplicates, read-out: DPPH Free Radical Scavenging Activity (IC50); for DPPH free-radical-scavenging activity compared with BHT: comparison with positive control BHT
Method: The DPPH (2,2-diphenyl-1-picrylhydrazyl) radical scavenging ability of the sample was conducted based on the method described by Kumagai et al. with minor modifications. The reaction mixture was with DPPH (0.1 mM, dissolved in ethanol) and various concentrations of sample in equal volumes, which was incubated at room temperature for 30 min in the dark. The absorbance of the mixture was measured at 517 nm using UV (UV-2600, UNICO Instrument Co. Ltd., Shanghai, China). The final concentrations of each compound in the wells were confined as 1000, 333, 111, 37.0, 12.3, 4.11, 1.37, and 0.46 μM. The ethanol and butylated hydroxytoluene (BHT), instead of samples, were used for a blank and positive control, respectively. Each assay was carried out in triplicates. IC50, the concentration of elimination of 50% DPPH radical scavenging activity, was measured by non-liner regression.

[2] = biological target: T1, Human recombinant COX-2 enzyme (Homo sapiens, UniProt P35354); experiment: COX-2 inhibitory activity assay (Cayman COX Fluorescent Inhibitor Screening Assay Kit); assay type: biochemical; conditions: 15 min pre-incubation, arachidonic acid substrate, fluorescence 530/595 nm, triplicates
T1 construct: purchased Cayman #700100
T1 sequence (P35354 18-604): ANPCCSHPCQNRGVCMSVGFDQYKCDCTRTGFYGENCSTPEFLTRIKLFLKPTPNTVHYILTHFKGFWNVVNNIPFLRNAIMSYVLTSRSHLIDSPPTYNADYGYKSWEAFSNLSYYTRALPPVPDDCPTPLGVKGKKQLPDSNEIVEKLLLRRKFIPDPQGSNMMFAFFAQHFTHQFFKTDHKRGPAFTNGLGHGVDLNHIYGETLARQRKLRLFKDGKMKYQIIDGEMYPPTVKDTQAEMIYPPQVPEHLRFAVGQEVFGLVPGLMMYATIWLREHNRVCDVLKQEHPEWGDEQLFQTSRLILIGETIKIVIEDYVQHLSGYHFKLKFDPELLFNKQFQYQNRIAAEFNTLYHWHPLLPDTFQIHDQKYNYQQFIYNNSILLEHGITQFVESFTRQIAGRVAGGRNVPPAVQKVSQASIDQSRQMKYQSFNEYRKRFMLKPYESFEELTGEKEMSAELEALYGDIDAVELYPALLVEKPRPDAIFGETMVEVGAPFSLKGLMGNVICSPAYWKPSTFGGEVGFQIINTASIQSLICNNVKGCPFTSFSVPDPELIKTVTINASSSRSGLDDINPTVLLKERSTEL
Method: The COX-2 inhibitory activity assay of sample was conducted according to a previously reported method. […] Human recombinant COX-2 enzyme was pre-incubated with inhibitors for 15 min at normal temperature, followed by the addition of heme and fluorometric substrate and incubation for another 15 min at normal temperature. The reaction was started by the addition of arachidonic acid and allowed to proceed for 2 min. […] Each assay was carried out in triplicates. IC50, was measured by non-liner regression.

[3] = parameters: method as in PMID 22061662; conditions: previous study; cited from earlier work

IC50 [1]	IC50 [2]	Compound	radical scavenging activity in comparison with vitamin C [3]	DPPH free-radical-scavenging activity compared with BHT [1]
170.3 ± 0.06 µM	–	Cc1cc(C(C)(C)C)c(O)c(C(C)(C)C)c1 [BHT, butylated hydroxytoluene, reference compound]	–	–
100.6 ± 0.025 µM	9.5 ± 0.08 µM	COc1cc(O)cc(-c2cc(O)c(O)cc2C)c1 [Compound 5, 5′-methoxy-6-methyl-biphenyl-3,4,3′-triol]	strong radical scavenging activity	higher DPPH free-radical-scavenging activities than BHT
> 1000 µM	> 30 µM	COc1cc(O)cc(C2=C(C)C[C@H](O)C2=O)c1 [Compound 6, (S)-alternariphent A1]	–	–
> 1000 µM	> 30 µM	COC(=O)Cc1cc(O)cc2scnc12 [Compound 3, methyl 2-(6-hydroxybenzothiazol-4-yl) acetate]	–	–
> 1000 µM	> 30 µM	COc1cc(O)c(C(=O)O)c(-c2cc(O)c3ncsc3c2C)c1 [Compound 2, altenusinoides B]	–	–
> 1000 µM	> 30 µM	COc1cc(O)c(C(=O)O)c(-c2c(C)cc(O)c3ncsc23)c1 [Compound 1, Altenusinoides A]	–	–

Compound	IC50 [1]	IC50 [2]	radical scavenging activity in comparison with vitamin C [3]	DPPH free-radical-scavenging activity compared with BHT [1]
COc1cc(O)c(C(=O)O)c(-c2cc(O)c(O)cc2C)c1 [Compound 4, Altenusin]	10.7 ± 0.09 µM	> 30 µM	strong radical scavenging activity	higher DPPH free-radical-scavenging activities than BHT
